Laboratory results published in patent US20220354845A1, “METHODS FOR ENHANCING DNA DAMAGE AND APOPTOSIS OF LEUKEMIC CELLS” (Thomas Jefferson University, priority 2019, published 2022).

Assays:
[1] = test system: THP-1 cells; experiment: DNA damage by γ-H2A.X foci and western blot in THP-1 cells; format: cell-based, human; details: for number of γ-H2A.X foci compared to untreated cells: single agent, Bleomycin 5 μM, Doxorubicin 0.1 μM, Etoposide 0.1 μM
Method: DNA damage evaluation by analysis of γ-H2A.X foci. […] Lower panels show γ-H2A.X signals only. […] In FIG. 6C, DNA damage was assessed by γ-H2A.X western blot in drug-treated THP-1 cell extracts.
(§1) FIG. 10B is a series of images showing immunofluorescence microscopy of γ-H2A.X foci in untreated or drug-treated (Doxorubicin 0.1 μM, palbociclib 500 nM) THP-1 cells. γ-H2A.X light gray, DAPI dark gray. In FIG. 10C, apoptosis was analyzed by Caspase 3/7 activity by flow cytometry.
The role of chromatin structure in cytotoxic agent-induced DNA damage was also assessed by investigating the formation of γ-H2A.X foci by confocal microscopy.

[2] = test system: Y641 and A677 mutants of EZH2; details: cited from earlier work
[3] = test system: primary CD34+ AML samples; experiment: Apoptosis by Caspase-3/7 activity (flow cytometry) in primary CD34+ AML samples; format: cell-based, human; details: CD34+ AML cells, co-treatment GSK-126 (0.5 μM) and Doxorubicin (0.1 μM), 48 hours
Method: (§2) FIGS. 9A-9B illustrate apoptosis of drug-treated cells. THP-1 (FIG. 9A) and primary CD34+ AML samples (FIG. 9B) were left untreated (CNTR), treated with Doxorubicin alone (0.1 μM), Etoposide alone (0.5 μM) or in combination with the EZH2 inhibitor GSK-126 (0.5 μM) for 48 hours. Apoptosis was analyzed by Caspase-3/7 activity by flow cytometry.

[4] = test system: THP-1 cells; experiment: Apoptosis by Caspase-3/7 activity (flow cytometry) in THP-1 cells; format: cell-based, human
Method: as §2
as §1, with “FIGS. 10A-10C illustrate that treatment with the CDK4/CDK6 inhibitor palbociclib suppresses Doxorubicin-induced DNA damage. […] FIG. 10B” for “FIG. 10B”
THP-1 cells were treated with Palbociclib (500 nM) for 24 hours to induce a G1-arrest. […] Anova ***p<0.001; (Right) Apoptosis analyzed by Caspase 3/7 activity by flow cytometry. Mean+/−SEM. Anova; *p<0.1 **p<0.01
To assess whether cell cycle synchronization through pre-conditioning with a CDK4/6 inhibitor prior to treatment, a subsequent study was performed in which THP-1 cells were treated with Palbociclib (500 nM) for 24 hours to induce a G1-arrest. […] (FIG. 15, Right) Apoptosis of treated cells was also analyzed by Caspase 3/7 activity by flow cytometry.

[5] = test system: THP-1 cells; experiment: ChIP-seq of γ-H2A.X in THP-1 cells; format: cell-based, human; details: THP-1 cells co-treated with GSK126
Source text: (§3) Box plot of ChIP-seq read density is shown. FIG. 14B is an example showing the COL93A locus.
Without wishing to be bound by theory, a more relaxed chromatin structure may be more susceptible to DNA damage.

[6] = test system: THP-1 cells; experiment: RAD51 foci formation in Doxorubicin-treated THP-1 cells; format: cell-based, human; details: GSK126 5 μM, Doxorubicin 0.1 μM; 12, 24, 36, 72 hrs
Source text: FIG. 7 illustrates the kinetics of RAD51 foci formation in Doxorubicin-treated THP-1 cells. […] RAD51 foci were detected by immunofluorescence in the pre-washed cultures (12 hrs), and at 24, 36, and 72 hrs post Doxorubicin washing.

[7] = test system: H3K27me3 in THP-1 cells; experiment: H3K27me3 levels in THP-1 cells (CAA, western blot, ChIP-seq); format: cell-based, human
Method: (§4) FIGS. 4A-4B illustrate the ability of EZH2 inhibitor to affect H3K27me3 binding. […] Cells were labeled with EdU for 15 minutes. CAA was performed with H3K27me3 antibody. Following PLA, cells were immunostained for EdU.
as §3
(§5) Chromatin assembly assay: Cells were grown on chamber slides, pulse-labeled with 5 μM EdU and fixed at room temperature with 4% formaldehyde in PBS for 15 min, washed with PBS, and permeabilized with 0.3% Triton for 15 min. Cells were subjected to Click-iT reaction with biotin-azide for 30 min. The PLA reactions (Olink) between the anti-biotin antibody and antibodies to other proteins were performed as described by Olink. Following PLA, cells were immunostained with anti-biotin Alexa Fluor 488 antibody to control the specificity of CAA. The results of CAA experiments shown in FIG. 1A were quantified by counting the number of PLA signals per EdU-labeled nuclei in 50 cells of each of the three independent experiments. The nature of the results in the rest of the figures alleviated the need to quantify the results of these assays.
(§6) Since DNA-damaging agents (eg., Doxorubicin) preferentially induce double strand breaks (DSBs) in more de-condensed regions of chromatin, some epigenetic inhibitors may render leukemic cells more susceptible to DNA damage. […]

[8] = test system: THP-1 cells; experiment: Comet assay in drug-treated THP-1 cells; format: cell-based, human; details: co-treatment with GSK126 and Doxorubicin
[9] = test system: primary ASXL1-mutated AML sample; experiment: γ-H2A.X foci in primary ASXL1-mutated AML sample; format: cell-based, human; details: CD34+ cells with frameshift ASXL1 mutation (G646fs*12); co-treatment with GSK126 (5 nM), 24 hours
Method: FIGS. 13A-13B illustrate accumulation of H3K27me3 on nascent DNA of a human primary ASXL1 mutated AML sample. In FIG. 13A, DNA was labeled with EdU for 15 minutes. Following conjugation with biotin, CAA was performed between nascent DNA (biotin) and H3K27me3. PLA (bright gray), Edu (biotin; light gray), DAPI; dark gray). Lower panels show PLA signals only. […] DNA Damage evaluation by analysis of γ-H2A.X foci. […] Immunofluorescence microscopy of γ-H2A.X foci (representative cells). γ-H2A.X light gray, DAPI, dark gray. Lower panels show γ-H2A.X signals only.
Mutations of ASXL1 are more frequent than EZH2 mutations and may cause a decrease in global H3K27me3 level and in the accumulation of this marker on nascent DNA. The H3K27me3 marker was not detected on Edu-labeled, nascent DNA of CD34+ […] cells carrying a frameshift ASXL1 mutation causing a premature termination (G646fs*12) in ˜50% of the cells, favoring a state of ‘open’ chromatin (FIGS. 13A and 13B).

[10] = test system: H3K27me3 in AML primary cells; experiment: H3K27me3 on nascent DNA of AML primary cells (CAA, western blot); format: cell-based, human; details: GSK126 for 12 hours
Method: as §4, §5, §6

[11] = test system: THP-1 and human CD34+ primary AML cells; experiment: DNA content analysis and myeloid marker flow cytometry of AML cells; format: cell-based; details: GSK126 alone
[12] = test system: primary CD34+ AML cells; experiment: γ-H2A.X foci and comet assay in primary CD34+ AML cells; format: cell-based, human; details: co-treated with GSK126 (5 μM) and Doxorubicin (0.3 or 0.1 μM), 24 h
Source text: FIGS. 8A-8D illustrate that inhibition of EZH2 enhances DNA damage as assessed by γ-H2A.X foci and comet assay in primary CD34+ AML cells. […] Immunofluorescence microscopy of γ-H2A.X foci (representative cells). γ-H2A.X light gray, DAPI, dark gray. Lower panels show γ-H2A.X signals only. […] Immunofluorescence microscopy of γ-H2A.X foci (representative cells). γ-H2A.X light gray, DAPI, dark gray. Lower panels show γ-H2A.X signals only.

[13] = test system: primary blasts from AML patient #22324; experiment: CAA (PLA) between EdU-labeled DNA and ATRIP at sites of DNA damage; format: cell-based, human; details: GSK343 12 hours, then 10 μM Bleomycin 1 hr
Method: Cells were labeled with EdU for 10 minutes and treated with 10 μM Bleomycin (Bleo) for 1 hr. CAA (PLA, dark) was performed between EdU and ATRIP protein. Chromatin assembly assay: Cells were grown on chamber slides, pulse-labeled with 5 μM EdU and fixed at room temperature with 4% formaldehyde in PBS for 15 min, washed with PBS, and permeabilized with 0.3% Triton for 15 min. Cells were subjected to Click-iT reaction with biotin-azide for 30 min. The PLA reactions (Olink) between the anti-biotin antibody and antibodies to other proteins were performed as described by Olink. Following PLA, cells were immunostained with anti-biotin Alexa Fluor 488 antibody to control the specificity of CAA. The results of CAA experiments shown in FIG. 1A were quantified by counting the number of PLA signals per EdU-labeled nuclei in 50 cells of each of the three independent experiments.

COc1cccc2c1C(=O)c1c(O)c3c(c(O)c1C2=O)C[C@@](O)(C(=O)CO)C[C@@H]3O[C@H]1C[C@H](N)[C@H](O)[C@H](C)O1 [Doxorubicin]
number of γ-H2A.X foci compared to untreated cells ([1]; 24 hours): markedly increased

Cc1cc(C)c(CNC(=O)c2cc(-c3ccc(CN4CCOCC4)cc3)cc3c2cnn3C2CCCC2)c(=O)[nH]1 [EPZ005687]
inhibition of the Y641 and A677 mutants of EZH2 [2]: can also inhibit

CC[C@H](C)n1cc(C)c2c(C(=O)NCc3c(C)cc(C)[nH]c3=O)cc(-c3ccc(N4CCNCC4)nc3)cc21 [GSK126]
apoptosis (Caspase-3/7 activity) [3]: enhanced apoptosis
apoptosis (Caspase-3/7 activity) ([4]; THP-1, co-treatment GSK-126 (0.5 μM) and Doxorubicin (0.1 μM), 48 hours): enhanced apoptosis
DNA damage/apoptosis induced by treatment with Ara-C only ([4]; THP-1 cells ex vivo, GSK126 with Ara-C): did not enhance
Doxorubicin-induced γ-H2A.X signals (ChIP-seq) [5]: increased
number of RAD51 foci (DSBs repair) following Doxorubicin-induced DNA damage [6]: not diminished
chromatin conformation (H3K27me3 on nascent DNA, CAA) ([7]; GSK126 for 12 hours): switching the chromatin conformation from “closed” to “open”
global levels of H3K27me3 (ChIP-seq) ([7]; GSK126 for 24 hours): marked decrease
number and mean fluorescence intensity of γ-H2A.X foci and γ-H2A.X levels ([1]; co-treatment of GSK126 (5 μM) with bleomycin, Doxorubicin or etoposide, 24 hours, vs cytotoxic agent alone): further increased
DNA damage by comet assay [8]: Increased DNA damage
Doxorubicin-induced DNA damage (γ-H2A.X foci) [9]: did not increase
chromatin conformation (H3K27me3 on nascent DNA, CAA) [10]: switching the chromatin conformation from “closed” to “open”
proliferation of AML cells (DNA content analysis) ([11]; 48 hrs, THP-1 and CD34+ primary AML cells): no effect
differentiation of AML cells (myeloid marker expression) ([11]; 5 days, AML #013 cells): no effect
DNA damage (γ-H2A.X foci and comet assay) [12]: Higher levels of DNA damage

CCCc1cc(C)[nH]c(=O)c1CNC(=O)c1cc(-c2ccnc(N3CCN(C)CC3)c2)cc2c1cnn2C(C)C [GSK343]
recruitment of ATRIP to sites of DNA damage induced by bleomycin [13]: significantly increased recruitment of ATRIP

CCOC(=O)CCNc1cc(N2CCc3ccccc3CC2)nc(-c2ccccn2)n1 [GSKJ4]
enhancement of Doxorubicin-induced DNA damage ([1]; THP-1 cells treated with GSKJ4): did not enhance

COc1cc([C@@H]2c3cc4c(cc3[C@@H](O[C@@H]3O[C@@H]5CO[C@@H](C)O[C@H]5[C@H](O)[C@H]3O)[C@H]3COC(=O)[C@H]23)OCO4)cc(OC)c1O [etoposide]
number of γ-H2A.X foci compared to untreated cells ([1]; 24 hours): markedly increased

bleomycin
number of γ-H2A.X foci compared to untreated cells ([1]; 24 hours): markedly increased
